The values that follow come from patent US8815857B2 (Boehringer Ingelheim International GmbH, priority 2011, dated 2014).

In brackets after ≈: the same amount, converted by molar mass.

Data set [1] addresses T1, Recombinant human soluble guanylate cyclase (sGC), alpha 1 / beta 1 subunits, heme-free (Homo sapiens, UniProt Q02108+Q02153).
T1 construct: histidine tag (C); made in house; host or cells: Sf9 insect cells (baculovirus coinfection)
T1 sequence (Q02108 1-690 partner): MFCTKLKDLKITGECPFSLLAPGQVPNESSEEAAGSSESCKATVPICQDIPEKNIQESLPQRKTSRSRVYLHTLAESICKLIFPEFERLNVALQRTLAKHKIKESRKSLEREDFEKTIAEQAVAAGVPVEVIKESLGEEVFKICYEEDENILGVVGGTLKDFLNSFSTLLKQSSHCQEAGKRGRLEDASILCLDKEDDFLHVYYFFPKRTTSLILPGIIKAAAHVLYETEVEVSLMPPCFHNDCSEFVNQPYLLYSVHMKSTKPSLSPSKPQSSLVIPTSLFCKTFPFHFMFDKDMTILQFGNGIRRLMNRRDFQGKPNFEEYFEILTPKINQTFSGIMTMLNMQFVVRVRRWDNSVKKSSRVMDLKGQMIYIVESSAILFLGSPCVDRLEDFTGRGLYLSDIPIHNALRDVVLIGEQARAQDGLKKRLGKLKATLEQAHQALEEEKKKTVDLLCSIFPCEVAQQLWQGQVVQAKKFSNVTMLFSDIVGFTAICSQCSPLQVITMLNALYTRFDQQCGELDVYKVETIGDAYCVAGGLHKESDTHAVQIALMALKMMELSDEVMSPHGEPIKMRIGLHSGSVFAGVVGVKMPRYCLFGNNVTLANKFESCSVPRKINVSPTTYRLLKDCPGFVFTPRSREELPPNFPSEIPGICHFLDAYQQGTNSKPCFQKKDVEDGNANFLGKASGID
T1 sequence (Q02153 1-619): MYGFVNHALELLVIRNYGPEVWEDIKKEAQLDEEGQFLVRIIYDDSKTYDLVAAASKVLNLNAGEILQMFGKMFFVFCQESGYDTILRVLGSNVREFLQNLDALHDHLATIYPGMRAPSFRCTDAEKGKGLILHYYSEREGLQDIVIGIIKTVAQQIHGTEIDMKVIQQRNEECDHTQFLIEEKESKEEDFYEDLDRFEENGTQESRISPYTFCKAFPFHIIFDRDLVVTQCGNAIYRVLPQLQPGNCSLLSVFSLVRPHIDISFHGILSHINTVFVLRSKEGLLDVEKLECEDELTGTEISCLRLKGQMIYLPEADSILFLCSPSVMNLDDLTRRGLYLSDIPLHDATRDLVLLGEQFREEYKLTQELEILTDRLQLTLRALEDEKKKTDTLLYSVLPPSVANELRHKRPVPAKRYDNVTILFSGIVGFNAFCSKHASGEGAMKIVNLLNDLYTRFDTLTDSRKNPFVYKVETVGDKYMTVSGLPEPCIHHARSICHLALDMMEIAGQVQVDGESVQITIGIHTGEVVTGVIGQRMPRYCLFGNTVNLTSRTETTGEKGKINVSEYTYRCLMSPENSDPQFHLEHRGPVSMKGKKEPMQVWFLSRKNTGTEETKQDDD
The data set is described as follows: Molecular assay: cGMP formation by heme-free recombinant sGC (CisBio cGMP detection kit). It counts as biochemical. As to conditions: 300 pM heme-free sGC, 37° C., 60 min, cGMP readout; read-out: EC50 nM, Activity of Compounds in Molecular Assay. The method in brief:
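cGMP generated over 60 min at 37° C (pH 6.8 MOPS buffer, 50 nM GTP, 1.25 mM IBMX, 1% DMSO) by 300 pM heme-free sGC, expressed in Sf9 and heme-stripped with 0.5% Tween 20. HTRF ratios converted to nM cGMP; EC50 fitted from log concentration.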

Data set [2] is described as follows: Assessment of solubility: HT solubility in pION buffer, UV spectrophotometry. As to conditions: 16-19 h incubation, 1.0% DMSO; for solubility: pION system solution buffer, kinetic from dmso stock.
[3] abbreviates: pH 4.5, pH 4.5, aqueous buffer, Solubility (pH 4.5), pH 4.5 buffer.
The mark [4] stands for this setting: pH 7.4, pH 7.4, aqueous buffer, Solubility (pH 7.4), pH 7.4 buffer.

For the molecule `Cc1ccc(OCc2ccc(C(=O)N3CCS(=O)(=O)CC3)cc2C)c(-c2csc(N3CCC(C(=O)O)CC3)n2)c1` [Compound 122], the EC50 in data set [1] amounted to 81 nM. For the same molecule, the solubility in data set [2] (setting [3]) was 4.3 µg/mL (≈ 7.37 µM); in data set [2] (setting [4]), over 58 µg/mL.
For the molecule `Cc1ccc(OCc2ccc(C(=O)N3CCC(O)CC3)cc2C#N)c(-c2csc(N3CCC(C(=O)O)CC3)n2)c1` [Compound 90], the EC50 in data set [1] was determined as 150 nM. Further, the solubility in data set [2] (setting [3]) is 35 µg/mL (≈ 62.4 µM); in data set [2] (setting [4]) it was over 56 µg/mL.
As for `Cc1cc(C(=O)N2CCCCC2)ccc1COc1ccc(Cl)cc1-c1csc(N2CC3CCC(C2)C3C(=O)O)n1` (stereo not drawn) [Compound 118], the EC50 in data set [1] turned out to be 85 nM. The solubility came out at 0.3 µg/mL (≈ 0.517 µM) in data set [2] (setting [3]) and 21 µg/mL (≈ 36.2 µM) in data set [2] (setting [4]).
On to `Cc1cc(CN2CCOCC2)ccc1COc1c(C#N)cccc1-c1csc(N2CCC(C(=O)O)CC2)n1` [Compound 35], for which the EC50 in data set [1] worked out at 280 nM. For the same molecule, the solubility in data set [2] (setting [3]) and in data set [2] (setting [4]) was over 53 µg/mL in each case.
With `Cc1cc(C(=O)N2CCCCC2)ccc1COc1ccc(F)cc1-c1csc(N2CC3C(C2)C3C(=O)O)n1` (stereo not drawn) [Compound 55], in data set [1], the EC50 stood at 360 nM. Moreover, the values for the solubility in data set [2] (setting [3]) and in data set [2] (setting [4]) were 0.3 µg/mL (≈ 0.56 µM) and over 53 µg/mL, respectively.
For the molecule `Cc1cc(C(=O)N2CCCCC2)ccc1COc1ccc(C#N)cc1-c1csc(N2C3CCC2CC(C(=O)O)C3)n1` (stereo not drawn) [Compound 109], the EC50 in data set [1] is 1500 nM. Moreover, the solubility in data set [2] (setting [3]) was 0.65 µg/mL (≈ 1.14 µM); in data set [2] (setting [4]), over 56 µg/mL.
Regarding `COCCN(C)Cc1ccc(COc2ccc(C)cc2-c2csc(N3CCC(C(=O)O)CC3)n2)c(C#N)c1` [Compound 46], in data set [1], the EC50 was determined as 260 nM. Moreover, the solubility in data set [2] (setting [3]) and in data set [2] (setting [4]) was over 64 µg/mL throughout.
In the case of `Cc1ccc(OCc2ccc(CN3CCOCC3)cc2C)c(-c2csc(N3CC[C@@H](C(=O)O)[C@@H](C)C3)n2)c1` [Compound 173], the EC50 in data set [1] stood at 140 nM. Also, the solubility in data set [2] (setting [3]) and in data set [2] (setting [4]) was over 64 µg/mL in each case.
Take `Cc1ccc(OCc2ccc(CN3CCOCC3)cc2C)c(-c2csc(N3CCC(CC(=O)O)C3)n2)c1` (stereo not drawn) [Compound 23]: the half-maximal effective concentration (EC50) in data set [1] was found to be 3200 nM. Further, the solubility in data set [2] (setting [3]) and in data set [2] (setting [4]) was over 56 µg/mL throughout.
Consider `Cc1cc(CN2CCS(=O)(=O)CC2)ccc1COc1ccc(C#N)cc1-c1csc(N2CCC(C(=O)O)C(C)C2)n1` (stereo not drawn) [Compound 135], for which the EC50 in data set [1] stood at 2700 nM. Moreover, the values for the solubility in data set [2] (setting [3]) and in data set [2] (setting [4]) were 0.45 µg/mL (≈ 0.757 µM) and over 59 µg/mL, respectively.
For `Cc1ccc(OCc2ccc(C(=O)N3CCCCC3)cc2C)c(-c2csc([C@H]3CC[C@H](C(=O)O)CC3)n2)c1` [Compound 38] the same measures were 1700 nM, 0.25 µg/mL (≈ 0.469 µM) and over 53 µg/mL.
With `Cc1cc(C(=O)N2CCCCC2)ccc1COc1ccc(F)cc1-c1csc(N2CCC(C(=O)O)CC2C)n1` (stereo not drawn) [Compound 79], the EC50 in data set [1] was 50 nM. Moreover, the solubility in data set [2] (setting [3]) is 0.25 µg/mL (≈ 0.453 µM); in data set [2] (setting [4]), over 55 µg/mL.
With `Cc1cc(CN2CCOCC2)ccc1COc1ccc(C#N)cc1-c1csc(N2CCC(C(=O)O)C(C)C2)n1` (stereo not drawn) [Compound 72], the 50% effective concentration (EC50) in data set [1] amounted to 4.8 nM. For the same molecule, the solubility in data set [2] (setting [3]) was 0.5 µg/mL (≈ 0.915 µM); in data set [2] (setting [4]), over 54 µg/mL.
As for `Cc1cc(C(=O)N2CCCCC2)ccc1COc1ccc(Cl)cc1-c1csc(N2CCC(C(=O)O)CC2C)n1` (stereo not drawn) [Compound 102], the EC50 in data set [1] stood at 30 nM. The solubility in data set [2] (setting [3]) was determined as 0.25 µg/mL (≈ 0.44 µM); in data set [2] (setting [4]), 26 µg/mL (≈ 45.8 µM).
For the molecule `Cc1ccc(OCc2ccc(CN3CCOCC3)cc2C)c(-c2csc(NCCCC(=O)O)n2)c1` [Compound 4], the EC50 in data set [1] came out at 760 nM. Moreover, the solubility in data set [2] (setting [3]) and in data set [2] (setting [4]) was over 54 µg/mL in each case.
Regarding `Cc1cc(C(=O)N2CCCCC2)ccc1COc1ccc(F)cc1-c1csc(N2CCC(C(=O)O)C(C)C2)n1` (stereo not drawn) [Compound 1], in data set [1], the EC50 came out at 60 nM. For the same molecule, the solubility is 0.85 µg/mL (≈ 1.54 µM) in data set [2] (setting [3]) and over 100 µg/mL in data set [2] (setting [4]).
On to `Cc1cc(CN2CCOCC2)ccc1COc1ccccc1-c1csc(N2CCC(C(=O)O)CC2)n1` [Compound 166], for which the EC50 in data set [1] was determined as 520 nM. Moreover, the solubility in data set [2] (setting [3]) and in data set [2] (setting [4]) was over 55 µg/mL each time.
In the case of `Cc1cc(C(=O)N2CCCCC2)ccc1COc1ccccc1-c1csc([C@H]2CC[C@H](C(=O)O)CC2)n1` [Compound 12], the EC50 in data set [1] was 4000 nM. Also, in data set [2] (pH 4.5 buffer), the “Solubility (pH 4.5)” value is 0.1 μg/mL. The molecule further registered a solubility in data set [2] (setting [4]) of over 51 µg/mL.
As for `Cc1cc(CN2CCOCC2)ccc1COc1c(Cl)cccc1-c1csc(N2CCC(C(=O)O)CC2)n1` [Compound 62], the EC50 in data set [1] was 22 nM. In addition, the solubility was 30 µg/mL (≈ 55.3 µM) in data set [2] (setting [3]) and over 65 µg/mL in data set [2] (setting [4]).
As to `Cc1cc(CN2CCS(=O)(=O)CC2)ccc1COc1ccc(Cl)cc1-c1csc(N2CCC(C(=O)O)C(C(F)(F)F)C2)n1` (stereo not drawn) [Compound 157], the EC50 in data set [1] came out at 940 nM. Besides, the figures for the solubility in data set [2] (setting [3]) and in data set [2] (setting [4]) were 0.15 µg/mL (≈ 0.228 µM) and over 65 µg/mL, respectively.
`Cc1cc(CN2CCOCC2)ccc1COc1ccc(F)cc1-c1csc(N2C3CCC2CC(C(=O)O)C3)n1` (stereo not drawn) [Compound 80]: the EC50 in data set [1] amounted to 740 nM. Also, the solubility in data set [2] (setting [3]) and in data set [2] (setting [4]) was over 62 µg/mL throughout.
Regarding `Cc1cc(C(=O)N2CCCCC2)ccc1COc1c(-c2csc(N3CCC(C(=O)O)CC3)n2)cccc1C(F)(F)F` [Compound 126], in data set [1], the EC50 was determined as 46 nM. Also, the solubility in data set [2] (setting [3]) is 0.15 µg/mL (≈ 0.255 µM); in data set [2] (setting [4]) it was over 58 µg/mL.
For `Cc1cc(CN2CCS(=O)(=O)CC2)ccc1COc1c(C)cccc1-c1csc(N2CCC(C(=O)O)CC2)n1` [Compound 105] the same measures were 37 nM, 8.9 µg/mL (≈ 15.6 µM) and over 56 µg/mL.
For `Cc1cc(CN2CCS(=O)(=O)CC2)ccc1COc1ccc(F)cc1-c1csc(N2CC3C(C2)C3C(=O)O)n1` (stereo not drawn) [Compound 110], in that order: 1200 nM, 0.35 µg/mL (≈ 0.612 µM) and over 57 µg/mL.
For `Cc1cc(CN2CCS(=O)(=O)CC2)ccc1COc1ccccc1-c1csc(N2CC3CCC(C2)C3C(=O)O)n1` (stereo not drawn) [Compound 121] the same measures were 280 nM, 3.3 µg/mL (≈ 5.67 µM) and over 58 µg/mL.
In the case of `Cc1ccc(OCc2ccc(CN3CCOCC3)cc2C)c(-c2csc(N3CCC(C(=O)O)CC3C(F)(F)F)n2)c1` (stereo not drawn) [Compound 132], the EC50 in data set [1] turned out to be 160 nM. In addition, the results for the solubility in data set [2] (setting [3]) and in data set [2] (setting [4]) were 15 µg/mL (≈ 25.4 µM) and over 58 µg/mL, respectively.
For `Cc1ccc(OCc2ccc(CN3CCOCC3)cc2C)c(-c2csc(N3CCC(C(=O)O)CC3)n2)c1` [Compound 20, 1-{4-[5-methyl-2-(2-methyl-4-morpholin-4-ylmethyl-benzyloxy)-phenyl]-thiazol-2-yl}-piperidine-4-carboxylic acid] the same measures were 140 nM, 33 µg/mL (≈ 63.3 µM) and 36 µg/mL (≈ 69 µM).
With `Cc1cc(C(=O)N2CCCCC2)ccc1COc1c(C#N)cccc1-c1csc(N2CCC(C(=O)O)CC2)n1` [Compound 66], in data set [1], the EC50 was 450 nM. Besides, the solubility in data set [2] (setting [3]) was 1 µg/mL (≈ 1.84 µM); in data set [2] (setting [4]), over 54 µg/mL.
Take `Cc1ccc(OCc2ccc(C(=O)N3CCCCC3)cc2C)c(-c2csc(N[C@H]3CC[C@@H](C(=O)O)C3)n2)c1` [Compound 40, (1R,3S)-3-[[4-[5-methyl-2-[[2-methyl-4-(piperidine-1-carbonyl)phenyl]methoxy]phenyl]thiazol-2-yl]amino]cyclopentanecarboxylic acid]: in data set [1], the EC50 was 2600 nM. Moreover, the solubility in data set [2] (setting [3]) was 2.3 µg/mL (≈ 4.31 µM); in data set [2] (setting [4]), over 53 µg/mL.
